Measurements published in patent EP1984014B1, “USE OF TPO PEPTIDE COMPOUNDS AND PHARMACEUTICAL COMPOSITIONS IN THE TREATMENT OF ANEMIA” (Janssen Pharmaceutica NV, priority 2006, dated 2007).

How the values were obtained:
Type in all cases: in vivo, BALB/c mouse
[1] = system: mice treated with carboplatin; experiment: Example 1: dose response of PEGylated TPO Compound No. 1 given one day after carboplatin, anemia in mice
Experimental: (§1) The effects of PEGylated TPO Compound No. 1 on mice treated with carboplatin were observed. For all examples herein, a 10 mg/ml stock solution of PEGylated TPO Compound No. 1 was prepared in sterile saline. For mixing, the preparation was placed on a gyratory shaker for 15min. at 200 rpm. This method was used to dissolve PEGylated TPO Compound No. 1 without foaming. The stock was filtered using a GV Millex (0.22um) filter. Dosing solutions were then prepared from this stock using sterile saline. The stock and dosing solutions were prepared fresh on the day of use.
The effect of PEGylated TPO Compound No. 1 on the duration and severity of anemia following treatment of mice with carboplatin as determined by changes in hemoglobin levels, red blood cell count and hematocrit, was observed. For this study, increasing amounts of PEGylated TPO Compound No. 1 were administered to mice one day following a carboplatin dose to characterize a possible dose-dependent effect on various red blood cell parameters.
(§2) The groups of mice were treated with either carboplatin or vehicle (Phosphate Buffered Saline, PBS) by intraperitoneal administration on Days -2 and -1 as delineated below. The optimal dose of carboplatin used to induce thrombocytopenia in the BALB/c mouse strain was previously determined to be a fractionated total dose of 120mg/kg given as two consecutive daily injections (i.e., 2x60mg/kg). One day following the second dose of carboplatin, groups of mice were treated with PEGylated TPO Compound No. 1 or vehicle (sterile saline, SS, preservative-free 0.9% sodium chloride) by IV (bolus) injection as delineated in Table 1. The dose was administered on a per-weight basis (100ul/10g body weight).
On Days 5, 7, 9 and 11, five mice in each test group were weighed and then euthanised using CO2-asphyxiation and exsanguinations via cardiac puncture. The blood samples were transferred to separate EDTA (lavender-top) microcontainers for hematologic evaluation. Groups of control mice (5) were processed on Days 5 and 11. The data are presented graphically as group means +SEM.

[2] = system: mice treated with carboplatin; experiment: Example 2: dosing seven days before and/or 1 hour after carboplatin, hematological parameters in mice
Experimental: as §1
The possibility that PEGylated TPO Compound No. 1 may sensitize bone marrow hematopoietic stem cells of mice to the toxic effects of carboplatin treatment was examined. For this study, a dose of PEGylated TPO Compound No. 1 was administered to the mice seven days prior to the carboplatin dose or immediately after carboplatin treatment. An additional group was treated with PEGylated TPO Compound No. 1 both prior to and after carboplatin administration. The effect of these dosing regimens on hematological parameters was also observed.
The groups of mice were treated with either carboplatin or vehicle (Phosphate Buffered Saline, PBS) by ip administration on Days 7 and 8 as delineated below. The optimal dose of carboplatin used to induce thrombocytopenia in the BALB/c mouse strain was previously determined to be a fractionated total dose of 120mg/kg given as two consecutive daily injections (i.e., 2x60mg/kg). Seven days prior to the first carboplatin dose or one (1) hour after the second dose of carboplatin, groups of mice were treated with PEGylated TPO Compound No. 1 (300ug/kg) or vehicle (sterile saline, SS, preservative-free 0.9% sodium chloride) by IV (bolus) injection as delineated in Table 2. An additional group was treated with PEGylated TPO Compound No. 1 both before (Day 0) and after (Day 8, t=1h) the carboplatin dose. All dosing was performed on a per-weight basis (100ul/10g body weight).
On Days 14, 18, 22 and 26, five mice in each test group were weighed and then euthanised using CO2-asphyxiation and exsanguination via cardiac puncture. The blood samples were transferred to separate EDTA (lavender-top) microcontainers for hematological evaluation. Groups of control mice (5) were processed on Days 14 and 26. The data are presented graphically as group means + SEM.

[3] = system: carboplatin-treated mice; experiment: Example 4: lower doses (30, 100, 300ug/kg) as survival factor for erythrocyte lineages in carboplatin-treated mice
Experimental: as §1
The ability of PEGylated TPO Compound No. 1 to function as a survival factor for megakaryocyte and erythrocyte lineages in carboplatin-treated mice as determined by changes in hematological parameters was observed. […] In this study, the effect of lower doses of PEGylated TPO Compound No. 1 (i.e., 30, 100 and 300ug/kg) on the survival of erythrocyte lineages was examined to characterize the dose-response for this effect.
as §2, with “ip” for “intraperitoneal”, “-1” for “-2”, “0” for “-1”, “Approximately one hour” for “One day”, “4.” for “1.”
On Days 6, 8 and 12, five mice in each test group were weighed and then euthanised using CO2-asphyxiation and exsanguinations via cardiac puncture. The blood samples were transferred to separate EDTA (lavender-top) microcontainers for hematologic evaluation. Groups of control mice (5) were processed on Days 6 & 12.

## Methoxypolyethyleneglycol20000-propionyl-L-Isoleucyl-L-Glutamyl-Glycyl-L-Prolyl-L-Threonyl-L-Leucyl-L-Arginyl-L-Glutaminyl-L-2-Naphthylalanyl-L-Leucyl-L-Alanyl-L-Alanyl-L-Arginyl-Sarcosyl-Ne-(methoxypolyethyleneglycol20000-propionyl-L-Isoleucyl-L-Glutamyl-Glycyl-L-Prolyl-L-Threonyl-L-Leucyl-L-Arginyl-L-Glutaminyl-L-2-Naphthylalanyl-L-Leucyl-L-Alanyl-L-Alanyl-L-Arginyl-Sarcosyl-)-Lysinamide [PEGylated TPO Compound No. 1]
[1]; all doses tested, 11-Day study period
  recovery of the lost body weight: enhanced the recovery of the lost body weight
[1]; appeared to be dose-dependent
  altered appearance and behavior (hunched, flaccid, soiled anogenital areas): decreased the onset, frequency and severity of these signs
[1]; carboplatin 2x60mg/kg ip Days -2 & -1, all doses (300, 1000, 3000ug/kg iv Day 0), by Day 11
  decrease in hemoglobin levels caused by carboplatin: inhibited
[1]; carboplatin 2x60mg/kg ip, 300-3000ug/kg iv Day 0, no statistical evaluation
  decreases in RBC count and hematocrit associated with carboplatin treatment: inhibited
[2]; 300ug/kg iv on Day 0 (only), seven days prior to carboplatin
  carboplatin-induced changes in erythrocyte parameters: failed to affect
[2]; 300ug/kg iv on Day 8 (1 hour after the second carboplatin treatment) only
  decreases in hemoglobin levels, RBC counts and hematocrits caused by carboplatin: prevented
[2]; 300ug/kg iv on Day 8 with an additional dose on Day 0
  decreases in hemoglobin levels, RBC counts and hematocrits caused by carboplatin: prevented
[2]; co-treatment, all regimens, no statistical analysis
  body weight loss between Days 7 and 26: prevented this weight loss
[2]; treatment on Day 8 without or with additional treatment on Day 0
  onset of signs (hunching, unkempt): appeared to delay the onset of these signs
[2]; treatment on Days 0 and 8
  severity and duration of signs (hunching, unkempt): decreased the severity and duration
[3]; 13-Day study period
  weight loss or recovery: did not appear to affect weight loss or recovery
[3]; 30, 100, 300ug/kg iv Day 0
  decreases in RBC counts and hematocrit induced by carboplatin treatment: effectively inhibited
[3]; all doses (30, 100, 300ug/kg iv Day 0, about 1 h after carboplatin), by Day 12
  decrease in hemoglobin levels caused by carboplatin: totally inhibited
[3]; all doses, on Day 12
  anemia induced by carboplatin: completely prevent
[3]; appeared to be dose-dependent
  altered appearance and behavior (hunched, unkempt, soft stool): decreased the onset, frequency and severity of these signs
